The text below walks through data of patent publication US8481522B2, “Platinum-N-heterocyclic carbene derivatives, preparation thereof and therapeutic use thereof” (Sanofi, priority 2008, dated 2013).

The subject of one assay is H460. As to the kind of experiment: Cytotoxicity, adherent cells, 14C-thymidine incorporation (cell proliferation). The format is cell-based. The following applies: NCI-H460 human non-small cell lung cancer, 96 h treatment. The protocol: NCI-H460 is a human non-small cell lung cancer which has a mutation in the K-ras gene. This cell is sensitive to platinum compounds. In this cell line, cisplatin forms more adducts than oxaliplatin at the same concentration and yet the percentage repair is higher for oxaliplatin (DNA Repair 2006, 5: 219-225).
Cell proliferation is evaluated by the incorporation of ^14C-thymidine into the DNA of the cells. A549, CH1, CH1/DDP and H460 are cultured in Dulbecco's modified Eagle's medium (DMEM), SK-OV-3 in Mc-Coy medium, A2780 and A2780/DDP in RPMI1640 medium. All the media contain 10% foetal calf serum, 2 mM L-glutamine, 100 units/ml of penicillin and […] of streptomycin. The incubation is performed at 37° C. in a 95% air/5% CO2 atmosphere.
The cells, at the exponential growth phase, are introduced into the wells of a Cytostar 96-well plate, containing a scintillation fluid (Cytostar-T scintillating microplate, GE Healthcare Bio-Sciences AB, Uppsala, Sweden), at the density of 5×10^3 to 10^4 cells per well, in an amount of 180 μl per well. After incubating for 4 hours, the test compounds are added. The compounds are prepared beforehand as a stock solution at the concentration of 10 mM in DMSO. A serial dilution is performed before the compounds are brought into contact with the cells in a volume of 10 μl. After incubating for 72 hours at 37° C. in an atmosphere of 95% air/5% CO2, 0.1 μCi/well of ^14C-thymidine is added. 24 h later (total 96 h of treatment), the incorporation of ^14C-thymidine is recorded on a suitable scintillation counter (MicroBeta radioactivity counting, Perkin-Elmer Life Sciences, Boston, Mass., USA). The mean values obtained in the experimental groups are divided by the mean values obtained in the control groups in order to obtain percentages relative to the controls.
(§1) The IC50 values are evaluated from curves presenting the percentage viability as a function of the concentration of the test compound, using the Biostat speed software. The IC50 is defined as the concentration of the compound which inhibits 50% of the cell proliferation or 50% of the cell viability.
(Incorporation of labelled thymidine or its analogues reports DNA synthesis.)

For the next assay, the system named is CCRF-CEM cells. Nature of the assay: Cytotoxicity, non-adherent CCRF-CEM cells, CellTiter-Glo luminescent cell viability. The format is cell-based. Conditions: CCRF-CEM human T leukaemia, 96 h incubation. The procedure: CCRF-CEM is a human T leukaemia (Cancer 1965, 18: 522-529). Oxaliplatin induces bifunctional lesions such as inter- and intra-DNA strand adducts on these CCRF-CEM cells (Mol Pharmacol 2000, 58: 920-927). […] This deficiency makes these cells particularly […] to alkylating agents and to platinum compounds.
For the non-adherent CCRF-CEM cells, the cell viability is measured by the luminescence test CellTiter-Glo® Luminescent Cell Viability Assay (Promega, Madison, Wis., USA). When it is added to the cells, the reagent produces a luminescence in the presence of the ATP of the living cells. The results are evaluated on a suitable reader (Envision, Perkin-Elmer Life Sciences, Boston, Mass., USA).
The CCRF-CEM cells are cultured in RPMI1640 medium containing 10% foetal calf serum, 2 mM L-glutamine, 100 units/ml of penicillin and […] of streptomycin, at 37° C. in a 95% air/5% CO2 atmosphere. The cells, at the exponential growth phase, are introduced into the wells of a 96-well plate at the density of 5×10^3 cells per well in an opaque plate (Greiner), in a volume of 150 μl. After incubating for 4 h at 37° C. in a 95% air/5% CO2 atmosphere, the compounds (concentrated 20-fold) are added in a volume of 8 μl. The compounds are prepared beforehand as a stock solution at the concentration of 10 mM in DMSO. A serial dilution is performed before the compounds are brought into contact with the cells. After incubating for 96 h at 37° C., 100 μl of agents (CellTiter-Glo) are added. After lysing the cells, the release of ATP is evaluated on the Envision reader.
as §1

Where “and” joins values, the source holds several entries; their conditions need not be identical. Equal entries are not always repeated.

The term IC50 denotes the concentration at which inhibition is half-maximal. Regarding `Cn1ccn(C)[c]1=[Pt-]([I])([I])[NH2+]C1CCCCC1` [Example 1, trans-diiodo(N-cyclohexylamine)(1,3-dimethylimidazol-2-ylidene)platinum(II)], the 50% inhibitory concentration (IC50) with H460 is 5.4 µM and 3 µM; with CCRF-CEM cells, 2.8 µM and 1.9 µM.
As to `Cn1ccn(Cc2ccc(C(F)(F)F)cc2)[c]1=[Pt-]([I])([I])[NH+]1CCOCC1` [Example 36, trans-diiodo(N-morpholine)(1-methyl-3-(4-trifluoromethylbenzyl)-imidazol-2-ylidene)platinum(II)], the 50% inhibitory concentration (IC50) in the assay on H460 stood at 0.9 µM; in the assay on CCRF-CEM cells, 0.6 µM.
For `Cn1c(-c2ccccc2)c[n+](C)[c]1[Pt-2]([I])([I])[NH2+]C1CCCCC1` [Example 20, trans-diiodo(N-cyclohexylamine)[1,3-dimethyl-4-phenylimidazol-2-ylidene]platinum(II)], the 50% inhibitory concentration (IC50) in the assay with H460 was determined as 4.4 µM; with CCRF-CEM cells it was 2.1 µM.
For the compound `Cn1cc[n+](Cc2ccc(C(F)(F)F)cc2)[c]1[Pt-2]([I])([I])[NH2+]C1CCOCC1` [Example 37, trans-diiodo(N-tetrahydropyran-4-ylamine)(1-methyl-3-(4-trifluoro-methylbenzyl)imidazol-2-ylidene)platinum(II)], the half-maximal inhibitory concentration (IC50) in the assay on H460 is 1.4 µM; in the assay on CCRF-CEM cells, 0.9 µM.
For the compound `Cn1ccn(Cc2ccccc2)[c]1=[Pt-]([I])([I])[NH2+]C1CCOCC1` [Example 29, trans-diiodo(N-4-aminotetrahydropyran)(1-methyl-3-benzylimidazol-2-ylidene)platinum(II)], the IC50 is 0.9 µM in the assay on H460 and 0.5 µM with CCRF-CEM cells.
The like results for `CN1CCC([NH2+][Pt-]([I])([I])=[c]2n(C)ccn2Cc2ccccc2)CC1` [Example 27, trans-diiodo[N-(1-methylpiperidin-4-ylamine)](1-methyl-3-benzyl-imidazol-2-ylidene)platinum(II)] were, in that order, 1.7 µM and 1.6 µM.
Turning to `Cn1ccn(C)[c]1=[Pt-]([I])([I])[NH2+]C1CC2CCC1C2` (single isomer, unassigned) [Example 24, trans-diiodo(N-exo(−)bicyclo[2.2.1]heptylamine)(1,3-dimethylimidazol-2-ylidene)platinum(II)], the IC50 was determined as 2.1 µM in the assay with H460 and 0.9 µM in the assay on CCRF-CEM cells.
The like results for `Cn1ccn(-c2ccccc2)[c]1=[Pt-]([I])([I])[NH2+]C1CCCCC1` [Example 4, trans-diiodo(N-cyclohexylamine)(1-methyl-3-phenylimidazol-2-ylidene)platinum(II)] were, in that order, 2.3 µM and 1.5 µM.
`C=Cn1ccn(C)[c]1=[Pt-]([I])([I])[NH2+]C1CCCCC1` [Example 15, trans-diiodo(N-cyclohexylamine)[1-methyl-3-vinylimidazol-2-ylidene]platinum(II)]: the results for the 50% inhibitory concentration (IC50) in the assay on H460 and with CCRF-CEM cells were 3.8 µM and 2.1 µM, respectively.
`Cn1ccn(Cc2ccccc2)[c]1=[Pt-]([I])([I])[NH2+]C1CCCC1` [Example 30, trans-diiodo(N-cyclopentylamine)(1-methyl-3-benzylimidazol-2-ylidene)platinum(II)]: the figures for the IC50 in the assay on H460 and in the assay on CCRF-CEM cells were 1.3 µM and 1.1 µM, respectively.
Taken in the same sequence, the figures for `Cn1[c](=[Pt]([I])([I])[NH]C2CCCCC2)n(C)c2ccccc21` [Example 8, trans-diiodo(N-cyclohexylamine)(1,3-dimethylbenzimidazol-2-ylidene)platinum(II)] were 1.9 µM and 3.1 µM.
For “trans-diiodo(N-cyclohexylamine)(1-methyl-3-phenyl-1,2,4-triazol-5-ylidene)platinum(II) [Example 19]”, the concentration for half-maximal inhibition (IC50) in the assay on H460 was 2.3 µM; in the assay on CCRF-CEM cells, 1 µM.
The like results for `Cn1ccn(Cc2ccccc2)[c]1=[Pt-]([I])([I])[NH+]1CCOCC1` [Example 31, trans-diiodo(N-morpholine)(1-methyl-3-benzylimidazol-2-ylidene)-platinum(II)] were, in that order, 0.9 µM and 0.7 µM.
`Cn1ccn(C)[c]1=[Pt-]([I])([I])[NH2+]Cc1ccccc1` [Example 13, trans-diiodo(N-benzylamine)(1,3-dimethylimidazol-2-ylidene)-platinum(II)]: the IC50 with H460 is 3 µM; in the assay with CCRF-CEM cells it was 1.7 µM.
The like results for `C[n+]1c(-c2ccccc2)c(-c2ccccc2)n(Cc2ccccc2)[c]1[Pt-2]([I])([I])[NH2+]C1CCCCC1` [Example 26, trans-diiodo(N-cyclohexylamine)[3-benzyl-4,5-diphenyl-1-methyl-imidazol-2-ylidene]platinum (II)] were, in that order, 2.9 µM and 1.2 µM.
Take `CCC(CC)[NH2+][Pt-]([I])([I])=[c]1n(C)ccn1Cc1ccccc1` [Example 28, trans-diiodo(N-pentan-3-ylamine)(1-methyl-3-benzylimidazol-2-ylidene)platinum(II)]: the results for the 50% inhibitory concentration (IC50) in the assay on H460 and in the assay with CCRF-CEM cells were 1.6 µM and 1.4 µM, respectively.
In the case of `C[n+]1ccn(Cc2cccc(C(F)(F)F)c2)[c]1[Pt-2]([I])([I])[NH2+]C1CCCCC1` [Example 33, trans-diiodo(N-cyclohexylamine)[1-methyl-3-(3-trifluoromethylbenzyl)imidazol-2-ylidene]platinum(II)], the IC50 was 0.8 µM in the assay on H460 and 0.7 µM in the assay with CCRF-CEM cells.
Taken in the same sequence, the figures for `Cn1ccn(C)[c]1=[Pt-]([I])([I])[NH2+]C1CC2CCC1C2` (racemic) [Example 6, trans-diiodo(N-exo(+/−)bicyclo[2.2.1]heptylamine)(1,3-dimethyl-imidazol-2-ylidene)platinum(II)] were 2.8 µM and 1.7 µM.
For `[I][Pt-]([I])([NH2+]C1CCCCC1)=[c]1n(C2CCCCC2)ccn1C1CCCCC1` [Example 18, trans-diiodo(N-cyclohexylamine)(1,3-dicyclohexylimidazol-2-ylidene)platinum(II)], the IC50 in the assay on H460 was 2.7 µM; in the assay on CCRF-CEM cells, 1.4 µM.
For `CC(C)(C)[n+]1ccn(Cc2ccccc2)[c]1[Pt-2]([I])([I])[n+]1ccccc1` [Reference product, trans-diiodo(pyridine)(1-benzyl-3-tert-butylimidazol-2-ylidene)platinum(II), reference compound], the IC50 came to 4.4 µM in the assay on H460 and 3.9 µM in the assay with CCRF-CEM cells.
The like results for `Cn1ccn(Cc2ccc(C(F)(F)F)cc2)[c]1=[Pt-]([Br])([Br])[NH2+]C1CCCCC1` [Example 38, trans-dibromo(N-cyclohexylamine)[1-methyl-3-(4-trifluoromethyl-benzyl)imidazol-2-ylidene]platinum(II)] were, in that order, 3 µM and 2.2 µM.
Taken in the same sequence, the figures for `COc1ccc(Cn2cc[n+](C)[c]2[Pt-2]([I])([I])[NH2+]C2CCCCC2)cc1OC` [Example 35, trans-diiodo(N-cyclohexylamine)[3-(3,4-dimethoxybenzyl)-1-methylimidazol-2-ylidene]platinum(II)] were 2.7 µM and 1.3 µM.
With `Cn1c(-c2ccccc2)c(-c2ccccc2)n(C)[c]1=[Pt]([I])([I])[NH]C1CCCCC1` [Example 22, trans-diiodo(N-cyclohexylamine)[1,3-dimethyl-4,5-diphenylimidazol-2-ylidene]platinum(II)], the concentration for half-maximal inhibition (IC50) came out at 1.8 µM in the assay on H460 and 1.2 µM with CCRF-CEM cells.
For the compound `Cn1ccn(C)[c]1=[Pt-]([I])([I])[NH2+]C1CC2CCC1C2` (single isomer, unassigned) [Example 23, trans-diiodo(N-exo(+)bicyclo[2.2.1]heptylamine)(1,3-dimethylimidazol-2-ylidene)platinum(II)], the results for the IC50 in the assay with H460 and with CCRF-CEM cells were 2.3 µM and 1.6 µM, respectively.
